# Data as given in patent US20190054054A1, “Methods reducing or preventing oxidation of high density lipoprotein (HDL)” (Amarin Pharmaceuticals Ireland Limited, priority 2017, published 2019).
# How the values were obtained:
# [1] = system: sdLDL isolated from human plasma; assay: Copper-induced sdLDL oxidation for 1 hour (Example 12); type: biochemical; details: 10.0 μM; sdLDL 200 μg/mL; copper-induced oxidation 1 hour
# [2] = Cholesterol domain formation by small angle x-ray diffraction (Example 3); details: PUFA-enriched model membranes, after autoxidation
# Experimental: Cholesterol domain peak intensity was calculated from multiple small angle x-ray diffraction measurements, which are directly proportional to domain levels. […] EPA-treated membranes reduced LOOH levels by greater than 90% (728±30 μM) compared to untreated controls (p<0.001).
# [3] = Lipid hydroperoxide (LOOH) formation in cholesterol-enriched model membranes under autoxidation (Example 3); type: biochemical; details: EPA to lipids 1:30, C/P mole ratio 0.6:1
# Experimental: An experiment was conducted to test EPA in model membranes enriched with PUFAs and cholesterol at levels that reproduce disease or high CV-risk conditions (i.e., hypercholesterolemia). […] Levels of lipid hydroperoxides were also measured in cholesterol-enriched membrane prepared in the absence of EPA as a control. […] CHOD-iodide color reagent (stock) was prepared according to a procedure modified from El-Saadani et […], Goher […], Jurgens G. A spectrophotometric assay for lipid peroxides in serum lipoproteins using commercially available reagent. J. Lipid. […] Membrane samples consisting of DLPC±cholesterol were prepared as follows. […] To ensure spectrophotometric readings within the optimum absorbance range, sample volumes taken for measurement of lipid peroxide formation were adjusted for length of peroxidation and range between 100 and 10 μL. […] Absorbances were measured against a CHOD blank at 365 nm using a Beckman DU-640 spectrophotometer. The CHOD colorimetric assay is based on the oxidation of iodide (I^-) by lipid hydroperoxides (LOOH) and proceeds according to the following reaction scheme: […]3^- The quantity of triiodide anion (I3^-) liberated in this reaction is directly proportional to the amount of lipid hydroperoxides present in the membrane sample.
# [4] = Glucose-induced membrane lipid peroxidation (LOOH, CHOD-iodide assay) in DLPC/cholesterol vesicles (Examples 4 and 5); type: biochemical; details: for inhibition of the peroxidative effects of glucose (LOOH formation) / effect on LOOH formation / lipid peroxidation (FIG. 3): 1:30 drug-to-phospholipid mole ratio; for effect on LOOH formation / lipid peroxidation (FIG. 3): glucose, 72- and 96-hour time points
# Experimental: Vitamin E (α-tocopherol) was also purchased from Sigma-Aldrich and prepared in ethanol at 1.0 mM (e=[…] at 294 nm) just prior to experimental use. […] All test compounds were further diluted in ethanol or aqueous buffer as needed. Glucose was prepared in saline buffer (0.5 mM HEPES, 154 mM NaCl, pH 7.3) at 11.0 mM (200 mg/dL). CHOD-iodide color reagent (stock) was prepared, with slight modification, as described by from El-Saadani et al. (J. […] Samples were shell-dried under nitrogen gas and placed under vacuum for 1 h to remove residual solvent. […] Lipid suspensions were then vortexed for 3 min at ambient temperature to form MLVs. All MLV samples were subjected to time-dependent autoxidation by incubating at 37° C. in an uncovered, shaking water bath. This method allows lipid peroxidation to occur gradually without requiring the use of exogenous initiators. Small aliquots (5-100 μL) of each sample were removed, immediately following MLV preparation (0 hour) and after exposing samples to oxidative conditions for 72 or 96 hour, and combined with 1.0 mL of activated CHOD-iodide color reagent. Aliquot volume was reduced with each successive time point to ensure that spectrophotometric readings were within the optimal adsorption range. Test samples were covered and incubated in darkness at room temperature for at least 4 hr. Sample absorbances were then measured against a CHOD blank at 365 nm using a Beckman DU-640 spectrophotometer. The CHOD colorimetric assay is based on the oxidation of iodide (I^−) by lipid hydroperoxide (LOOH) to form triiodide (I3^−), the quantity of which is directly proportional to the amount of LOOH present in the lipid sample. The molar absorptivity (ε) of I3^− is 2.46×10^4 M^−1 cm^−1 at 365 nm. An experiment was conducted to compare the ability of EPA to prevent lipid hydroperoxide formation in model membranes treated with glucose to two other 20-carbon fatty acids: eicosanoic acid (“EA,” also referred to as arachidic acid, C20:0) and eicosatrienoic acid (“ETE,” C20:3, n-3). All MLV samples were subjected to time-dependent autoxidation by incubating at 37° C. in an uncovered, shaking water bath. This method allows lipid peroxidation to occur gradually without requiring the use of exogenous initiators. Small aliquots (5-100 μL) of each sample were removed, immediately following MLV preparation (0 hr) and after exposing samples to oxidative conditions for 72 or 96 hr, and combined with 1.0 mL of activated CHOD-iodide color reagent. Aliquot volume was reduced with each successive time point to ensure that spectrophotometric readings were within the optimal adsorption range. Test samples were covered and incubated in darkness at room temperature for at least 4 hr. Sample absorbances were then measured against a CHOD blank at 365 nm using a Beckman DU-640 spectrophotometer. The CHOD colorimetric assay is based on the oxidation of iodide (I^−) by lipid hydroperoxide (LOOH) to form triiodide (I3^−), the quantity of which is directly proportional to the amount of LOOH present in the lipid sample. The molar absorptivity (ε) of I3^− is 2.46×10^4 M^−1 cm^−1 at 365 nm.
SMILES,reduction of sdLDL oxidation compared to vehicle treatment alone [1] [%],cholesterol crystalline domain formation [2],LOOH level ([3]; after autoxidation 72 hours) [µM],"reduction of LOOH levels compared to untreated controls ([3]; autoxidation 37° C., 72 hours)","inhibition of the peroxidative effects of glucose (LOOH formation) ([4]; glucose 200 mg/dL, 72 hours) [%]","inhibition of the peroxidative effects of glucose (LOOH formation) ([4]; glucose 200 mg/dL, 96 hours) [%]",effect on LOOH formation / lipid peroxidation (FIG. 3) [4],"membrane LOOH formation, dose dependence ([4]; EPA at 1.0 and 5.0 μM, glucose-treated)","LOOH formation compared to vehicle only, glucose only, glucose and EA, or glucose and ETE ([4]; Example 5, 72 and 96 hr)","antioxidant effect, separate treatments ([4]; each at 1.0 μM, glucose 200 mg/dL, 96 hours)"
"CC/C=C\C/C=C\C/C=C\C/C=C\C/C=C\CCCC(=O)O [EPA, cis-5,8,11,14,17-eicosapentaenoic acid]",> 90,inhibits cholesterol crystalline domain formation,728 ± 30,greater than 90%,88,86,significantly inhibited LOOH formation,inhibit membrane LOOH formation in a dose-dependent manner,significantly less LOOH formation,separate and potent antioxidant effects
"Cc1c(C)c2c(c(C)c1O)CC[C@@](C)(CCC[C@H](C)CCC[C@H](C)CCCC(C)C)O2 [vitamin E, α-tocopherol]",,,,,,,no significant effect on lipid peroxidation,,,
